Source: ChEMBL document CHEMBL1149904, “Isolation and structure determination of malevamide E, a dolastatin 14 analogue, from the marine cyanobacterium Symploca laete-viridis” (J Nat Prod, 2008)

Test system: HEK293
Assay: Inhibition of Ca2+ release activated Ca2+ channels in thapsigarin-treated HEK cells
Assay type: cell-based
Details: Homo sapiens

CNC(=O)C[C@H]1C(=O)N(C)[C@@H](C)C(=O)OC(C)CCC/C=C/CCC(OC)C/C=C/C=C(\C)C(=O)N[C@H](C(C)C)C(=O)N(C)[C@@H](Cc2ccccc2)C(=O)N(C)[C@@H](C(C)C)C(=O)N(C)[C@@H](C(C)C)C(=O)N2CCC[C@H]2C(=O)N1C (stereo partly specified)
Activity: Dose-dependent effect
